Assay results taken from patent publication US9321722B2, “Bis-indolic derivatives, their uses in particular as antibacterials” (UNIVERSITE JOSEPH FOURIER, priority 2011, dated 2016).
Values after ≈ are worked out from the molar mass of the structure shown. Like-named read-outs stand apart in the source and are kept apart here.

Experiments:
S. epidermidis CIP 81.55 = experiment: MIC microdilution (Table I-1); format: cell-based, Staphylococcus epidermidis
Method: (§1) The microdilution method recommended by the Clinical and Laboratory Standard Institute [M07-A8, Vol. 29, N^o 2] was used. The activity of indolic compounds was tested against 29 bacterial strains belonging to 17 different species and 12 different genera (Staphylococcus, Streptococcus, Enterococcus, Listeria, Bacillus, Haemophilus, Escherichia, Klebsiella, Enterobacter, Serratia, Pseudomonas, and Acinetobacter). Bacterial inocula were prepared in Mueller Hinton broth (MH2, bioMerieux, Marcy L'Etoile, France), supplemented with 10% sheep blood for fastidious species (i.e., Streptococcus pneumoniae and Haemophilus influenzae). They were dispensed in 96 well microtiter plates (5×10^5 CFU/ml of final inoculum). Indolic compounds were added to the wells as to obtain two-fold serial concentrations (0.50-128 mg/L of final concentrations). Plates were incubated at 37° C. in ambient air, or at 37° C. in 5% CO2 enriched atmosphere for fastidious species. […] Drug-free cultures served as growth controls. Cultures receiving gentamicin, ciprofloxacin or cefotaxime served as positive controls.

[1] = tested on: S. epidermidis CIP 103627; experiment: MIC microdilution (Table I-1); format: cell-based, Staphylococcus epidermidis
Method: as §1

[2] = tested on: S. epidermidis ATCC 12228; experiment: MIC microdilution (Table I-1); format: cell-based, Staphylococcus epidermidis
Method: as §1

S. aureus CIP 65.6 = experiment: MIC microdilution (Table I-1); format: cell-based, Staphylococcus aureus
Method: as §1

S. aureus CIP 103428 = experiment: MIC microdilution (Table I-1); format: cell-based, Staphylococcus aureus
Method: as §1

S. aureus ATCC 29213 = experiment: MIC microdilution (Table I-1); format: cell-based, Staphylococcus aureus
Method: as §1

S. aureus ATCC 6538 = experiment: MIC microdilution (Table I-1); format: cell-based, Staphylococcus aureus
Method: as §1

S. aureus ATCC 9144 = experiment: MIC microdilution (Table I-1); format: cell-based, Staphylococcus aureus
Method: as §1

[3] = tested on: S. aureus CIP 65.25 (MRSA); experiment: MIC microdilution (Table I-1); format: cell-based, Staphylococcus aureus; details: read after 18 hours
Method: as §1

S. aureus SA-1199B = experiment: MIC microdilution (Table I-1); format: cell-based, Staphylococcus aureus
Method: as §1

[4] = tested on: S. aureus ATCC 106414 (VISA); experiment: MIC microdilution (Table I-1); format: cell-based, Staphylococcus aureus; details: read after 18 hours
Method: as §1

[5] = tested on: S. aureus ATCC 33592 (MRSA); experiment: MIC microdilution (Table I-1); format: cell-based, Staphylococcus aureus; details: read after 18 hours
Method: as §1

[6] = tested on: MRC5 (human lung fibroblast); experiment: In vitro cytotoxicity; format: cell-based
Method: (§2) In vitro cytotoxicity was assayed on three cell lines—KB (human mouth carcinoma), MCR5 (human lung fibroblast) and HCT116 (human colon tumor). Results are presented in table III as % of cellular growth inhibition in presence of 10^−5 M and 10^−6 M of the tested bis-indolic derivatives.

[7] = tested on: KB (human mouth carcinoma); experiment: In vitro cytotoxicity; format: cell-based; details: KB
Method: as §2

[8] = tested on: HCT116 (human colon tumor); experiment: In vitro cytotoxicity; format: cell-based
Method: as §2

E. faecalis ATCC 29212 = experiment: MIC microdilution (Table I-1); format: cell-based
Method: as §1

[9] = tested on: S. pyogenes (group A) CIP 104226; experiment: MIC microdilution (Table I-1); format: cell-based
Method: as §1

[10] = tested on: Haemophilus influenzae ATCC 49766; experiment: MIC microdilution (Table I-1); format: cell-based; details: ATCC49766; Haemophilus influenzae ATCC 49766; read after 18 hours; read-out: MIC
Method: as §1

[11] = tested on: Enterobacter cloacae ATCC 13047; experiment: MIC microdilution (Table I-1); format: cell-based; details: ATCC13047, read after 18 hours
Method: as §1

S. aureus ATCC 25923 = experiment: MIC microdilution (Table I-1); format: cell-based; details: Staphylococcus aureus, ATCC25923, read after 18 hours
Method: as §1

S. pneumoniae ATCC 49619 = experiment: MIC microdilution (Table I-1); format: cell-based; details: Streptococcus pneumoniae, ATCC49619, read after 18 hours
Method: as §1

[12] = tested on: Serratia marcescens CIP 103551; experiment: MIC microdilution (Table I-1); format: cell-based; details: CIP103551, read after 18 hours
Method: as §1

[13] = tested on: Listeria innocua CIP 80.11; experiment: MIC microdilution (Table I-1); format: cell-based
Method: as §1

S. mitis CIP 103335 = experiment: MIC microdilution (Table I-1); format: cell-based
Method: as §1

[14] = tested on: S. agalactiae (group B) ATCC 12400; experiment: MIC microdilution (Table I-1); format: cell-based
Method: as §1

[15] = tested on: Pseudomonas aeruginosa CIP 5933; experiment: MIC microdilution (Table I-1); format: cell-based; details: CIP5933, read after 18 hours
Method: as §1

[16] = tested on: Acinetobacter baumanii ATCC 19606; experiment: MIC microdilution (Table I-1); format: cell-based; details: Acinetobacter baumannii, ATCC19606, read after 18 hours
Method: as §1

E. faecium CIP 54.32 = experiment: MIC microdilution (Table I-1); format: cell-based
Method: as §1

[17] = tested on: Bacillus subtilis CIP 5262; experiment: MIC microdilution (Table I-1); format: cell-based
Method: as §1

[18] = tested on: Klebsiella pneumoniae ATCC 35657; experiment: MIC microdilution (Table I-1); format: cell-based
Method: as §1

[19] = tested on: Escherichia coli ATCC 25922; experiment: MIC microdilution (Table I-1); format: cell-based; details: ATCC25922, read after 18 hours
Method: as §1

S. pneumoniae ATCC 6303 = experiment: MIC microdilution (Table I-1); format: cell-based, Streptococcus pneumoniae
Method: as §1

[20] = tested on: 29 bacterial strains belonging to 17 different species; experiment: Intrinsic antibacterial activity, MIC on the bacterial panel; format: cell-based; details: result in words
Method: as §1

[21] = Staphylococcus aureus, read-out: MIC

Molecule CC(C)(C)OC(=O)NCC(NC(=O)C(=O)c1c[nH]c2cc(Br)ccc12)c1c[nH]c2ccccc12 (stereo not drawn) [Compound 3, tert-Butyl(2-(2-(6-bromo-1H-indol-3-yl)-2-oxoacetamido)-2-(1H-indol-3-yl)ethyl) carbamate] has an MIC (S. epidermidis CIP 81.55; Staphylococcus epidermidis, CIP81, read after 18 hours, read-out: MIC) of 8 µg/mL (≈ 15.2 µM), an MIC ([1]; Staphylococcus epidermidis, CIP103627, read after 18 hours, read-out: MIC) greater than 16 µg/mL and an MIC ([2]; Staphylococcus epidermidis, ATCC12228, read after 18 hours, read-out: MIC) of 4 µg/mL (≈ 7.61 µM). It also gave an MIC (S. aureus CIP 65.6; Staphylococcus aureus, CIP65, read after 18 hours, read-out: MIC) of 4 µg/mL (≈ 7.61 µM), an MIC (S. aureus CIP 103428; Staphylococcus aureus, CIP103428, read after 18 hours, read-out: MIC) of 4 µg/mL (≈ 7.61 µM) and an MIC (S. aureus ATCC 29213; Staphylococcus aureus, ATCC29213, read after 18 hours, read-out: MIC) of 2 µg/mL (≈ 3.81 µM). For the same molecule, the MIC (S. aureus ATCC 6538; Staphylococcus aureus, ATCC6538, read after 18 hours, read-out: MIC) was 4 µg/mL (≈ 7.61 µM), the MIC (S. aureus ATCC 9144; Staphylococcus aureus, ATCC9144, read after 18 hours, read-out: MIC) was 4 µg/mL (≈ 7.61 µM) and the MIC [3, 21] was 4 µg/mL (≈ 7.61 µM). The MIC (S. aureus SA-1199B; Staphylococcus aureus, SA1199B, 18 h) was 4 µg/mL (≈ 7.61 µM), the MIC [4, 21] was 4 µg/mL (≈ 7.61 µM) and the MIC [5, 21] was 4 µg/mL (≈ 7.61 µM). It also gave an inhibition at 10 µM ([6]; MRC5, 10^−5 M, read-out: % of cellular growth inhibition) of 98 ± 1%, an inhibition at 1 µM ([6]; MRC5, 10^−6 M, read-out: % of cellular growth inhibition (converted)) of 0% and an inhibition at 10 µM ([7]; 10^−5 M, read-out: % of cellular growth inhibition) of 100 ± 1%. For the same molecule, the inhibition at 1 µM ([7]; 10^−6 M, read-out: % of cellular growth inhibition (converted)) was 4%, the inhibition at 10 µM ([8]; HCT-116, HCT116, 10^−5 M, read-out: % of cellular growth inhibition) was 97 ± 1% and the inhibition at 1 µM ([8]; HCT-116, HCT116, 10^−6 M, read-out: % of cellular growth inhibition (converted)) was 0%. The MIC (E. faecalis ATCC 29212; Enterococcus faecalis, ATCC29212, read after 18 hours, read-out: MIC) was greater than 128 µg/mL, the MIC ([9]; Streptococcus pyogenes, CIP104226, read after 18 hours, read-out: MIC) was 128 µg/mL (≈ 244 µM) and the MIC [10] was 32 µg/mL (≈ 60.9 µM). It also gave an MIC [11] greater than 128 µg/mL, an MIC (S. aureus ATCC 25923) of 4 µg/mL (≈ 7.61 µM) and an MIC (S. pneumoniae ATCC 49619) greater than 128 µg/mL. The MIC [12] was greater than 128 µg/mL, the MIC ([13]; CIP80, read after 18 hours, read-out: MIC) was greater than 128 µg/mL and the MIC (S. mitis CIP 103335; Streptococcus mitis, CIP103335, read after 18 hours, read-out: MIC) was greater than 128 µg/mL. For the same molecule, the MIC ([14]; Streptococcus agalactiae, ATCC12400, read after 18 hours, read-out: MIC) was 64 µg/mL (≈ 122 µM), the MIC [15] was greater than 128 µg/mL and the MIC [16] was greater than 128 µg/mL. The MIC (E. faecium CIP 54.32; Enterococcus faecium, CIP54, read after 18 hours, read-out: MIC) was 32 µg/mL (≈ 60.9 µM), the MIC ([17]; CIP5262, read after 18 hours, read-out: MIC) was 128 µg/mL (≈ 244 µM) and the MIC ([18]; ATCC35657, read after 18 hours, read-out: MIC) was greater than 128 µg/mL. The MIC [19] was greater than 128 µg/mL and the MIC (S. pneumoniae ATCC 6303; Streptococcus pneumoniae, ATCC6303, read after 18 hours, read-out: MIC) was 64 µg/mL (≈ 122 µM).
With “tert-Butyl(2-(4-bromo)benzamido-2-(5-bromo-1H-indol-3-yl)ethyl)carbamate [Compound 12a]” the MIC (S. epidermidis CIP 81.55; read after 18 hours) was greater than 32 µg/mL, the MIC ([1]; read after 18 hours) was greater than 32 µg/mL and the MIC ([2]; read after 18 hours) was greater than 32 µg/mL. The intrinsic antibacterial activity [20] was “lack of intrinsic antibacterial activity”, the MIC (S. aureus CIP 65.6; read after 18 hours) was greater than 32 µg/mL and the MIC (S. aureus CIP 103428; read after 18 hours) was greater than 32 µg/mL. The MIC (S. aureus ATCC 29213; read after 18 hours) was greater than 32 µg/mL, the MIC (S. aureus ATCC 6538; read after 18 hours) was greater than 32 µg/mL and the MIC (S. aureus ATCC 9144; read after 18 hours) was greater than 32 µg/mL. It also gave an MIC [3] greater than 32 µg/mL, an MIC (S. aureus SA-1199B; S. aureus SA-1199B, read after 18 hours) greater than 32 µg/mL and an MIC [4] greater than 32 µg/mL. For the same molecule, the MIC [5] was greater than 32 µg/mL, the MIC (E. faecalis ATCC 29212; read after 18 hours) was greater than 128 µg/mL and the MIC ([9]; read after 18 hours) was greater than 128 µg/mL. For the same molecule, the MIC ([13]; read after 18 hours) was greater than 128 µg/mL, the MIC (S. mitis CIP 103335; read after 18 hours) was greater than 128 µg/mL and the MIC ([14]; read after 18 hours) was 64 µg/mL. The MIC (E. faecium CIP 54.32; read after 18 hours) was greater than 128 µg/mL, the MIC ([17]; read after 18 hours) was greater than 128 µg/mL and the MIC ([18]; read after 18 hours) was 64 µg/mL. The MIC (S. pneumoniae ATCC 6303; read after 18 hours) was 128 µg/mL.
